Experimental data reported in PMC9246869, “Allosteric inhibition of PPM1D serine/threonine phosphatase via an altered conformational state” (Nature Communications, 2022).
Values joined by “and” are separate entries in the source; they are usually repeats but may differ in a detail not shown here. Equal values may be shown once.

Tests used:
PPM1DΔflap [1] = target: T1, PPM1DΔflap (Homo sapiens, UniProt O15297, DEL219-231/DEL235-284/E287S/S285N); assay: Differential scanning fluorimetry (DSF); assay type: binding; settings: PPM1D Dflap, individual trials; in °C (unit assumed)
T1 construct: PPM1D1–218-GGSNGS-288–420 (PPM1D∆flap); His(6)-SUMO (N, cleaved yes); made in house; host or cells: E. coli BL21 (DE3)
T1 sequence (O15297 with tags, fused parts or gaps DEL219-231/DEL235-284/S285N/E287S): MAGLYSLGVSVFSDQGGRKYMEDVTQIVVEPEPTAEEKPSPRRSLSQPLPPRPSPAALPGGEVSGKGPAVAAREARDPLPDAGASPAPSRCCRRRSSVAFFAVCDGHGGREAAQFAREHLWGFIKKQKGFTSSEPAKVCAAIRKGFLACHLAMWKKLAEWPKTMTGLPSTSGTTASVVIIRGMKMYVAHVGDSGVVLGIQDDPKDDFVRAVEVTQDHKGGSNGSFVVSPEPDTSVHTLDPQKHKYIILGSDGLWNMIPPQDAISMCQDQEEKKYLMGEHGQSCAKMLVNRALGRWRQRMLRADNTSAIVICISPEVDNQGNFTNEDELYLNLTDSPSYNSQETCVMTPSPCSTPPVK
Protocol: (§1) The purified protein constructs were mixed in the assay buffer containing 25 mM HEPES pH 7.5, 10 mM MgCl2, 150 mM NaCl. The sample preparation for the DSF assay included incubating the protein constructs (final concentration 0.2–0.4 mg/mL) with either DMSO alone (control) or with 40 µM GSK2830371 for 30 min before the addition of the Sypro orange dye (final concentration 10×). The final reaction volume of 10 µL was pipetted into a 384 multi-well clear plate (Light Cycler 480), sealed using a foil and spun down at 1000 × g for 2 min. The fluorescence emission intensity of the Sypro Orange dye was monitored in a LightCycler-480 instrument by running the Protein Melt program. The program was run in a continuous acquisition mode from 25 °C to 95 °C with a ramp rate of 0.06 °C/s (with 10 acquisitions/°C). The data (first derivative of the fluorescence signal as a function of temperature) was analyzed using the LightCycler-480 software for measuring the Tm values with and without the compound. A separate control with buffer alone and buffer with compound was run in the same plate to subtract out the potential interactions of the buffer components and/or the compound with the dye.

PPM1DΔhinge = target: T2, PPM1DΔhinge (Homo sapiens, UniProt O15297, DEL155-163/G166S/M164G/T165G); assay: Differential scanning fluorimetry (DSF); assay type: binding; settings: PPM1D Dhinge, in °C (unit assumed)
T2 construct: PPM1D1–154-GGS-167–420 (PPM1D∆hinge); His(6)-SUMO (N, cleaved yes); made in house; host or cells: E. coli BL21 (DE3)
T2 sequence (O15297 with tags, fused parts or gaps DEL155-163/M164G/T165G/G166S): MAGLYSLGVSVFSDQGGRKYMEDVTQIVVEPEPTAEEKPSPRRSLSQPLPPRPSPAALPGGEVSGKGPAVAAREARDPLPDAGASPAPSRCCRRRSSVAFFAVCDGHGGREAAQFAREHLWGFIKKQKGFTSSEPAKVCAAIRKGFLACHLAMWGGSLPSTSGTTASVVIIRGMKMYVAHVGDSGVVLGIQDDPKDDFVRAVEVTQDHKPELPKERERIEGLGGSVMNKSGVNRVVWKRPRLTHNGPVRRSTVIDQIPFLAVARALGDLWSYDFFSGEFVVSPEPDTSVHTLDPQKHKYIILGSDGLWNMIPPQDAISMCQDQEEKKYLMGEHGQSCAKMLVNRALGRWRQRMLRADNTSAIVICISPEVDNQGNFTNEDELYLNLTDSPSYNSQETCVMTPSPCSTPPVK
Protocol: as §1

Solubility = assay type: physicochemical; settings: precluded ITC
PPM1D1–420 = target: T3, PPM1D1–420 (Homo sapiens, UniProt O15297); assay: Differential scanning calorimetry (DSC); assay type: binding
T3 construct: PPM1D1–420 was PCR-amplified from the synthesized gene with BsaI sites; His(6)-SUMO (N, cleaved yes); made in house; host or cells: E. coli BL21 (DE3)
T3 sequence (O15297 1-420): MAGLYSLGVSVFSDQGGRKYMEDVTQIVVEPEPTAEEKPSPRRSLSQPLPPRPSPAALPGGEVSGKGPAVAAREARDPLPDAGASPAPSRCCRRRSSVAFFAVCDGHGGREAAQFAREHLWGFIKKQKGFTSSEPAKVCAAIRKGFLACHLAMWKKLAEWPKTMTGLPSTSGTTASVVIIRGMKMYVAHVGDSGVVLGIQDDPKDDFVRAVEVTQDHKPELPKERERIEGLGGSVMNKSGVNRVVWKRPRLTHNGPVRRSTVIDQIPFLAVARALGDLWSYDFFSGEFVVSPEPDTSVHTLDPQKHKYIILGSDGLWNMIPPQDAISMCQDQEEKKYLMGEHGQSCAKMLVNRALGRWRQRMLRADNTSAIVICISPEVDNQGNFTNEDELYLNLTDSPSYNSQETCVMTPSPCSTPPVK
Protocol: (§2) DSC thermograms were recorded in MicroCal DSC from Malvern with an autosampler. For DSC experiments the purified protein constructs were extensively dialyzed against 25 mM HEPES pH 7.5, 10 mM MgCl2, 150 mM NaCl and 1 mM TCEP. The experiments were performed using 0.4 mg/mL concentration of wild-type or mutant protein (8.5–8.9 µM), with and without GSK2830371 compound at 40 µM and 2% DMSO (v/v). The respective reference scans were run under identical DSC set up conditions and subtracted from each sample scan. The program was run in a continuous acquisition mode from 25 °C to 90 °C at a rate of 120 °C/h The heat capacity curves and midpoint temperature (Tm) were analyzed using Origin 7.0 software.

PPM1DΔflap [2] = target: T1, PPM1DΔflap; assay: Differential scanning calorimetry (DSC); assay type: binding; settings: Supplementary Fig. 5B
Protocol: as §2

[3] = source data Fig 3C, with GSK, in °C (unit assumed)

Which “DSF melting temperature with GSK2830371” value (PPM1DΔflap [1]) does the source give for Cc1ncc(Cl)cc1NCc1ccc(C(=O)N[C@@H](CC2CCCC2)C(=O)NC2CC2)s1 [GSK2830371] here?
The value was 63.0141 and 62.619 and 62.5754 and 62.548.

What about the “DSF melting temperature with GSK2830371, Average” value (PPM1DΔhinge; average of 4 trials) of the same compound?
Its value is 55.5129.

What about the “DSF melting temperature with GSK2830371” value (PPM1DΔhinge; individual trials) of the same compound?
Its value is 55.7617 and 55.9693 and 55.1773 and 55.1434.

And the “solubility (in words)” value (Solubility)?
The value was “relatively low solubility”.

What about the ΔTm at 40 µM (PPM1D1–420; PPM1D1–420, 40 µM compound, read-out: thermal shift by DSC) of the same compound?
Its ΔTm at 40 µM is 8 °C.

What about the “DSC Trial 1 (melting temperature)” value (PPM1D1–420; Sup Fig 2D, protein with GSK vs WT alone, trial 1) of the same compound?
The value was 62.26 ˚C.

And the “DSC Trial 2 (melting temperature)” value (PPM1D1–420; Sup Fig 2D, protein with GSK vs WT alone, trial 2)?
Its value is 62.33 ˚C.

And the “DSC Trial 3 (melting temperature)” value (PPM1D1–420; Sup Fig 2D, protein with GSK vs WT alone, trial 3)?
The value was 62.14 ˚C.

And the “DSC Average (melting temperature)” value (PPM1D1–420; Sup Fig 2D, protein with GSK, average of trials)?
The value was 62.2433 ˚C.

And the “DSC Average (Tm)” value (PPM1D1–420; [3])?
Its value is 62.2433.

And the “DSC Trial 1 (Tm)” value (PPM1D1–420; [3])?
Its value is 62.26.

What about the “DSC Trial 2 (Tm)” value (PPM1D1–420; [3]) of the same compound?
The value was 62.33.

And the “DSC Trial 3 (Tm)” value (PPM1D1–420; [3])?
Its value is 62.14.

And the “thermal shift by DSC” value (PPM1DΔflap [2])?
Its value is “+8.5 °C”.
